Measurements published in patent publication US10006079B2, “Method for establishing the anti-diabetic potential of bitter melon” (Glykon Technologies Group, LLC, priority 2013, dated 2018).

Assays:
Normal Rats = test: Hypoglycemic activity of bitter melon extracts in normal rats (blood glucose after oral glucose challenge); assay type: in vivo, Wistar Albino male rats; conditions: for hypoglycemia in normal animals (glucose <70 mg/dL in this model): 50 mg/kg
Protocol: (§1) This and related experiments subsequently were published (Clouatre et al., 2011.) Wistar Albino male rats 12 weeks of age were obtained from St John's Pharmacy College Animal House, India and handled according to institutional practices. […] All rats were fed a standard rat chow diet ad libitum from Sai Durga Feed, Bangalore; water also was supplied ad libitum. Following 7 days acclimatization, one half of the rats were fasted for 24 hours and then injected with freshly prepared STZ in citrate buffer [[…]] (45 mg/kg, i.p). After one week, rats with marked hyperglycemia (fasting blood glucose >300 mg/dL) were used as the diabetic rats.
(§2) Extracts 1-4 were produced and preserved via different methods attempting to retain efficacies reported for macerated fresh fruit preparations. EX-1 was a vacuum-dried powder of the macerated extract of fresh fruit (˜25:1). EX-2 was a freeze-dried powder of the macerated extract of fresh fruit (˜25:1). EX-3 was a spray-dried powder of the macerated extract of fresh fruit (˜25:1). EX-4 was a vacuum-dried powder of the macerated extract of fresh fruit adsorbed onto powdered vacuum-dried fresh fruit (˜15:1). Dosages of the extracts (mg/kg bodyweight/day) were 50 and 250 mg/kg as indicated. After an overnight fast, the extract samples suspended in 5% gum acacia were administered to the animals by gastric intubations with a syringe.
(§3) For test purposes, glucose was given orally by intubation as a 40% solution (1 g/kg body wt). Blood samples following the glucose challenge were collected for the measurement of blood glucose from the tail vein at 0, 1, 2, 3 and 4 hrs. The blood glucose level was determined by using an electronic glucometer (Accu Check, Roche Diagnostic).
First, the hypoglycemic activity of bitter melon extracts was studied in normal rats.

[1] = tested on: streptozotocin-induced diabetic rats; test: Anti-hyperglycemic activity of bitter melon extracts in streptozotocin-induced diabetic rats (blood glucose); assay type: in vivo, Wistar Albino male rats; conditions: extracts 250 mg/kg, metformin 150 mg/kg
Protocol: as §1, §2, §3
Next, the anti-hyperglycemic activity of bitter melon extracts was studied in streptozotocin-induced diabetic rats described above.

`CN(C)C(=N)N=C(N)N` [Metformin, metformin] was tested, and the “hypoglycemia in normal animals (glucose <70 mg/dL in this model)” value (Normal Rats) was “resulted in hypoglycemia”, the “Blood Glucose Level, Treatment +1 hr” value (Normal Rats; 50 mg/kg oral, +1 hr) was 85.5 ± 1.8 mg % and the “Blood Glucose Level, Treatment +2 hr” value (Normal Rats; 50 mg/kg oral, +2 hr) was 73.5 ± 1.2 mg %. For the same compound, the “percent reduction in blood sugar level compared with initial glucose value (0 h)” value (“percent reduction in blood sugar level” for short) (Normal Rats; 50 mg/kg oral, +2 hr) was “(34.9) percent”, the “Blood Glucose Level, Treatment +3 hr” value (Normal Rats; 50 mg/kg oral, +3 hr) was 66.5 ± 1.2 mg % and the “percent reduction in blood sugar level” value (Normal Rats; 50 mg/kg oral, +3 hr) was “(46.4) percent”. For the same compound, the “Blood Glucose Level, Treatment +4 hr” value (Normal Rats; 50 mg/kg oral, +4 hr) was 52.5 ± 0.7 mg %, the “percent reduction in blood sugar level” value (Normal Rats; 50 mg/kg oral, +4 hr) was “(53.5) percent” and the “Blood Glucose Level, Initial (0 hr)” value (Normal Rats; 50 mg/kg oral, initial value 0 hr) was 93.3 ± 1.3 mg %. For the same compound, the “hypoglycemia in normal animals (glucose <70 mg/dL in this model)” value (Normal Rats; listed as metformin) was “led to hypoglycemia”, the “reduced blood glucose, percent” value ([1]; diabetic animals, at 4 hours) was 53.52 percent (mg %) and the “Blood Glucose Level, Treatment +1 hr” value ([1]; diabetic rats, +1 hr) was 271.6 ± 4.0 mg %. The “Blood Glucose Level, Treatment +2 hr” value ([1]; diabetic rats, +2 hr) was 214.4 ± 3.2 mg %, the “percent reduction of blood sugar level compared with initial level of blood glucose (0 h)” value (shortened to “percent reduction of blood sugar level”) ([1]; diabetic rats, +2 hr) was “(34.9) percent” and the “Blood Glucose Level, Treatment +3 hr” value ([1]; diabetic rats, +3 hr) was 176.0 ± 6.7 mg %. The “percent reduction of blood sugar level” value ([1]; diabetic rats, +3 hr) was “(46.4) percent”, the “Blood Glucose Level, Treatment +4 hr” value ([1]; diabetic rats, +4 hr) was 153.0 ± 3.3 mg % and the “percent reduction of blood sugar level” value ([1]; diabetic rats, +4 hr) was “(53.5) percent”. The “Blood Glucose Level, Initial (0 hr)” value ([1]; diabetic rats, initial value 0 hr) was 329.2 ± 5.3 mg %.
